Test results from patent US7345091B2, “Carotenoid ether analogs or derivatives for the inhibition and amelioration of disease” (Cardax Pharmaceuticals, Inc., priority 2002, dated 2008).
“Also recorded” adds a separate entry of the source. Structures can show the parent of a compound that is named as a salt.

Test system: C3H/10T1/2 cells
Test: Assembly of Cx43 into plaques (immunofluorescent staining)
Assay type: cell-based, mouse
Conditions: 1×10^-5 M in 1:2 EtOH/H2O, 4 days
Description: In this experiment expression and assembly of Cx43 into plaques was assessed by immunofluorescent staining. Procedures were essentially as described in Zhang (1992). Briefly, confluent cultures of C3H/10T1/2 cells were grown on Permanox plastic 4-chamber slides (Nalge Nunc International, Naperville, Ill.) and treated for 4 days with: (1) the disodium salt disuccinate astaxanthin derivative XVI (statistical mixture of stereoisomers) dissolved in a 1:2 EtOH/H2O formulation; (2) the retinoid TTNPB at 1×10^−8 M in tetrahydrofuran as a positive control; or (3) 1:2 EtOH/H2O as a solvent control. Cells were fixed with −20° C. methanol overnight, washed in buffer, blocked in 1% bovine serum albumin (Sigma, St, Louis, Mo.) in PBS, and incubated with the rabbit polyclonal anti-Cx43 antibody (Zymed, San Francisco, Calif.) as in (2) above and detected with Alexa568 conjugated anti-rabbit secondary (Molecular Probes, Eugene, Oreg.). Slides were illuminated with […] light and images were acquired at a wavelength of 600 nm using the Zeiss Axioscope light microscope and a Roper Scientific cooled CCD camera. […] In cultures treated with solvent as control, such immunoreactive plaques were infrequent and were smaller than those detected in cells treated with the statistical mixture of stereoisomers of the disodium salt disuccinate astaxanthin derivative XVI or with TTNPB as positive control. […]

SMILES: CC1=C(/C=C/C(C)=C/C=C/C(C)=C/C=C/C=C(C)/C=C/C=C(C)/C=C/C2=C(C)C(=O)C(OC(=O)CCC(=O)O)CC2(C)C)C(C)(C)CC(OC(=O)CCC(=O)O)C1=O (racemic) [XVI, Disodium Salt of the Disuccinic Acid Ester of Astaxanthin]
- assembly of immunoreactive Cx43 into plaques: increases assembly of Cx43; also recorded: exhibited assembly of immunoreactive Cx43 into plaques
